Several values for one entry are separate records, joined by “and”; a condition that tells them apart may be missing. Equal values may be shown once.
Legend:
[1] = Plasma methadone concentrations by liquid chromatography/triple quadrupole mass spectrometry (Example I); conditions: for concentration at 2 h / concentration at 4 h / concentration at 6 h / concentration at 8 h / concentration at 12 h / concentration at 24 h / concentration at 0 h / concentration at 0.333 h / concentration at 0.667 h / concentration at 1 h: dog, in vivo, Mean plasma methadone concentration; for Plasma methadone concentration, individual dogs: Dog 1-6
[2] = Plasma methadone, fluconazole, naltrexone and naltrexone metabolite concentrations (Example IV)
From the text: Anesthesia was monitored by licensed veterinary technicians.

[3] = tested on: healthy dogs; assay: Sedation assessment after oral methadone alone or with oral fluconazole (Example I); type: in vivo, dog; conditions: methadone alone 1 mg/kg PO
[4] = tested on: dogs undergoing ovariohysterectomy; assay: Pre-anesthetic sedation in ovariohysterectomy clinical trial (Example IV); conditions: 0.5 mg/kg SC q 4 h; with acepromazine 0.05 mg/kg SC
[5] = in vivo
Experimental: Five healthy mixed breed, purpose bred dogs were included in this study. […] Blood was obtained immediately prior to the 4 hour dose (i.e. a trough sample).

[6] = tested on: dogs undergoing ovariohysterectomy; assay: Ease of IV catheter placement in ovariohysterectomy clinical trial (Example IV); conditions: 0.5 mg/kg SC q 4 h; with acepromazine 0.05 mg/kg SC

Which results are given for `CCC(=O)C(CC(C)N(C)C)(c1ccccc1)c1ccccc1` (racemic) [methadone]?
concentration at 2 h ([1]; methadone 1 mg/kg PO 24 h after starting fluconazole 2.5 mg/kg PO q 12 h, 2 hr): 28.4 ng/mL; concentration at 4 h ([1]; methadone 1 mg/kg PO 24 h after starting fluconazole 2.5 mg/kg PO q 12 h, 4 hr): 23.3 ng/mL; concentration at 6 h ([1]; methadone 1 mg/kg PO 24 h after starting fluconazole 2.5 mg/kg PO q 12 h, 6 hr): 19.2 ng/mL; concentration at 8 h ([1]; methadone 1 mg/kg PO 24 h after starting fluconazole 2.5 mg/kg PO q 12 h, 8 hr): 15.9 ng/mL; concentration at 12 h ([1]; methadone 1 mg/kg PO 24 h after starting fluconazole 2.5 mg/kg PO q 12 h, 12 hr): 11.6 ng/mL; concentration at 24 h ([1]; methadone 1 mg/kg PO 24 h after starting fluconazole 2.5 mg/kg PO q 12 h, 24 hr): 5.6 ng/mL; concentration at 0 h ([1]; methadone 1 mg/kg PO 24 h after starting fluconazole 5 mg/kg PO q 12 h, 0 hr): 0 ng/mL; concentration at 0.333 h ([1]; methadone 1 mg/kg PO 24 h after starting fluconazole 5 mg/kg PO q 12 h, 0.333 hr): 14 ng/mL; concentration at 0.667 h ([1]; methadone 1 mg/kg PO 24 h after starting fluconazole 5 mg/kg PO q 12 h, 0.667 hr): 10.3 ng/mL; concentration at 1 h ([1]; methadone 1 mg/kg PO 24 h after starting fluconazole 5 mg/kg PO q 12 h, 1 hr): 24.3 ng/mL; concentration at 2 h ([1]; methadone 1 mg/kg PO 24 h after starting fluconazole 5 mg/kg PO q 12 h, 2 hr): 43.6 ng/mL; concentration at 4 h ([1]; methadone 1 mg/kg PO 24 h after starting fluconazole 5 mg/kg PO q 12 h, 4 hr): 42.5 ng/mL; concentration at 6 h ([1]; methadone 1 mg/kg PO 24 h after starting fluconazole 5 mg/kg PO q 12 h, 6 hr): 33.9 ng/mL; concentration at 8 h ([1]; methadone 1 mg/kg PO 24 h after starting fluconazole 5 mg/kg PO q 12 h, 8 hr): 27.6 ng/mL; concentration at 12 h ([1]; methadone 1 mg/kg PO 24 h after starting fluconazole 5 mg/kg PO q 12 h, 12 hr): 20.2 ng/mL; concentration at 24 h ([1]; methadone 1 mg/kg PO 24 h after starting fluconazole 5 mg/kg PO q 12 h, 24 hr): 8.3 ng/mL; concentration at 0 h ([1]; methadone 1 mg/kg PO 24 h after starting fluconazole 5 mg/kg PO q 24 h, 0 hr): 0 ng/mL; concentration at 0.333 h ([1]; methadone 1 mg/kg PO 24 h after starting fluconazole 5 mg/kg PO q 24 h, 0.333 hr): 5.8 ng/mL; concentration at 0.667 h ([1]; methadone 1 mg/kg PO 24 h after starting fluconazole 5 mg/kg PO q 24 h, 0.667 hr): 22.4 ng/mL; concentration at 1 h ([1]; methadone 1 mg/kg PO 24 h after starting fluconazole 5 mg/kg PO q 24 h, 1 hr): 33.7 ng/mL; concentration at 2 h ([1]; methadone 1 mg/kg PO 24 h after starting fluconazole 5 mg/kg PO q 24 h, 2 hr): 39.9 ng/mL; concentration at 4 h ([1]; methadone 1 mg/kg PO 24 h after starting fluconazole 5 mg/kg PO q 24 h, 4 hr): 31.4 ng/mL; concentration at 6 h ([1]; methadone 1 mg/kg PO 24 h after starting fluconazole 5 mg/kg PO q 24 h, 6 hr): 24 ng/mL; concentration at 8 h ([1]; methadone 1 mg/kg PO 24 h after starting fluconazole 5 mg/kg PO q 24 h, 8 hr): 18.4 ng/mL; concentration at 12 h ([1]; methadone 1 mg/kg PO 24 h after starting fluconazole 5 mg/kg PO q 24 h, 12 hr): 15.3 ng/mL; concentration at 24 h ([1]; methadone 1 mg/kg PO 24 h after starting fluconazole 5 mg/kg PO q 24 h, 24 hr): 5.5 ng/mL; Plasma methadone concentration (not exceeded in any of 6 dogs) ([1]; methadone alone 1 mg/kg PO): ≤ 2 ng/mL; Plasma methadone concentration, individual dogs ([1]; methadone alone 1 mg/kg PO, 0 hr): <0.5 ng/mL; Plasma methadone concentration, individual dogs ([1]; methadone alone 1 mg/kg PO, 0.333 hr): <0.5 ng/mL (3×) and 1.3 ng/mL (2×) and 1.9 ng/mL; Plasma methadone concentration, individual dogs ([1]; methadone alone 1 mg/kg PO, 0.667 hr): 1.9 ng/mL and 1.2 ng/mL and 0.7 ng/mL and 1.3 ng/mL and 1.5 ng/mL and 1.0 ng/mL; Plasma methadone concentration, individual dogs ([1]; methadone alone 1 mg/kg PO, 1 hr): 1.2 ng/mL (2×) and 1.5 ng/mL and 1.4 ng/mL and 1.1 ng/mL; Plasma methadone concentration, individual dogs ([1]; methadone alone 1 mg/kg PO, 2 hr): <0.5 ng/mL (2×) and 0.8 ng/mL and 1.3 ng/mL and 0.6 ng/mL and 0.9 ng/mL; Plasma methadone concentration, individual dogs ([1]; methadone alone 1 mg/kg PO, 4 hr): <0.5 ng/mL (2×) and 1.0 ng/mL and 0.5 ng/mL and 0.7 ng/mL; Plasma methadone concentration, individual dogs ([1]; methadone alone 1 mg/kg PO, 6 hr): <0.5 ng/mL; Plasma methadone concentration, individual dogs ([1]; methadone alone 1 mg/kg PO, 8 hr): <0.5 ng/mL; Plasma methadone concentration, individual dogs ([1]; methadone alone 1 mg/kg PO, 12 hr): <0.5 ng/mL; Plasma methadone concentration, individual dogs ([1]; methadone alone 1 mg/kg PO, 24 hr): <0.5 ng/mL; Plasma methadone concentrations median (range) ([2]; injectable methadone 0.5 mg/kg SC q 4 h, Day 1 4:00 PM): 14.4 (5.4-32.9)^1; Plasma methadone concentrations median (range) ([2]; injectable methadone 0.5 mg/kg SC q 4 h, Day 1 8:00 PM): 22.4 (14.8-47.7); Plasma methadone concentrations median (range) ([2]; injectable methadone 0.5 mg/kg SC q 4 h, Day 2 5:00 PM): 2.0 (0-10)^1,2; Plasma methadone concentrations median (range) ([2]; oral methadone/fluconazole/naltrexone formulation 0.5 mg/kg (methadone) PO q 12 h, Day 1 4:00 PM): 20.6 (2.6-30.3)^2; Plasma methadone concentrations median (range) ([2]; oral methadone/fluconazole/naltrexone formulation 0.5 mg/kg (methadone) PO q 12 h, Day 1 8:00 PM): 17.6 (2.0-29.8)^1; Plasma methadone concentrations median (range) ([2]; oral methadone/fluconazole/naltrexone formulation 0.5 mg/kg (methadone) PO q 12 h, Day 2 5:00 PM): 14.1 (3.6-41.7)^2,3; Plasma methadone concentrations median (range) ([2]; oral methadone/fluconazole/naltrexone formulation 1 mg/kg (methadone) PO q 12 h, Day 1 4:00 PM): 36.2 (3.2-67.7)^1,2; Plasma methadone concentrations median (range) ([2]; oral methadone/fluconazole/naltrexone formulation 1 mg/kg (methadone) PO q 12 h, Day 1 8:00 PM): 27.7 (2.1-54.8)^1; Plasma methadone concentrations median (range) ([2]; oral methadone/fluconazole/naltrexone formulation 1 mg/kg (methadone) PO q 12 h, Day 2 5:00 PM): 46.7 (1.4-98.5)^1,3; Sedation [3]: not noted in any of the dogs at any time point; Pre-anesthetic sedation: A. None - no apparent effect (number of dogs) [4]: 0; Pre-anesthetic sedation: B. Mild - drowsy, but still active (number of dogs) [4]: 7; Pre-anesthetic sedation: C. Moderate - drowsy, glazed eyes, but still able to walk without assistance (number of dogs) [4]: 3; Pre-anesthetic sedation: D. Heavy - Very drowsy, unable to walk or requires assistance to walk (number of dogs) [4]: 3; Persistence of methadone plasma concentrations compared to the standard formulation of methadone ([5]; injectable opioid formulation containing an azole antifungal): persisted longer; Time to which methadone plasma concentrations persisted ([5]; injectable opioid formulation containing an azole antifungal, SC at 0 and 4 h, one dog): at least 32 hours; concentration at 32 h ([5]; mixed breed, dog, in vivo, sc): 4 ng/mL; IV Catheter placement: A. Unable to restrain the dog (number of dogs) [6]: 0; IV Catheter placement: B. The dog was restrained, but was difficult (number of dogs) [6]: 2; IV Catheter placement: C. The dog was restrained with little effort (number of dogs) [6]: 8; IV Catheter placement: D. The dog was unable to sit sternal and had to be supported (number of dogs) [6]: 3

Reference: patent US11771662B2, “Analgesic formulation for control of pain in dogs” (Kansas State University Research Foundation, priority 2017, dated 2023)
